Our source for the EC50 values is patent US8633200B2, “Inhibitors of human immunodeficiency virus replication” (priority 2010, dated 2014).

Bounds are passed on as bounds.

The subject of the experiment is recombinant NL-Rluc virus (NL4-3 with Renilla Luciferase gene) in MT-2 cells. The experiment in a line: Inhibition of HIV replication (NL-Rluc luciferase reporter virus, MT-2 cells). The experiment is classed as cell-based, human immunodeficiency virus (HIV). As to conditions: NL43, 120 h, read-out: Activity.
Consider `Cc1ncccc1-c1cccc(-c2cc3nc(C)c([C@H](OC(C)(C)C)C(=O)O)c(-c4cc(F)c5c(c4C)CCCO5)n3n2)c1` [Example 167, (2S)-2-(tert-Butoxy)-2-(7-(8-fluoro-5-methylchroman-6-yl)-5-methyl-2-(3-(2-methylpyridin-3-yl)phenyl)pyrazolo[1,5-a]pyrimidin-6-yl)acetic acid], for which the EC50 is less than 100 nM.

Turning to `COc1cc(-c2cccc(-c3cc4nc(C)c([C@H](OC(C)(C)C)C(=O)O)c(-c5cc(F)c6c(c5C)CCCO6)n4n3)c2)ccn1` [Example 168, (2S)-2-(tert-Butoxy)-2-(7-(8-fluoro-5-methylchroman-6-yl)-2-(3-(2-methoxypyridin-4-yl)phenyl)-5-methylpyrazolo[1,5-a]pyrimidin-6-yl)acetic acid], the EC50 was less than 100 nM.

As for `COc1ccc(-c2cccc(-c3cc4nc(C)c([C@H](OC(C)(C)C)C(=O)O)c(-c5cc(F)c6c(c5C)CCCO6)n4n3)c2)cn1` [Example 169, (2S)-2-(tert-Butoxy)-2-(7-(8-fluoro-5-methylchroman-6-yl)-2-(3-(6-methoxypyridin-3-yl)phenyl)-5-methylpyrazolo[1,5-a]pyrimidin-6-yl)acetic acid], the EC50 was less than 100 nM.

In the case of `Cc1cc(-c2cccc(-c3cc4nc(C)c([C@H](OC(C)(C)C)C(=O)O)c(-c5cc(F)c6c(c5C)CCCO6)n4n3)c2)ccn1` [Example 170, (2S)-2-(tert-Butoxy)-2-(7-(8-fluoro-5-methylchroman-6-yl)-5-methyl-2-(3-(2-methylpyridin-4-yl)phenyl)pyrazolo[1,5-a]pyrimidin-6-yl)acetic acid], the EC50 was less than 100 nM.

On to `Cc1nc2cc(-c3cccc(-c4cncc(F)c4)c3)nn2c(-c2cc(F)c3c(c2C)CCCO3)c1[C@H](OC(C)(C)C)C(=O)O` [Example 171, (2S)-2-(tert-Butoxy)-2-(7-(8-fluoro-5-methylchroman-6-yl)-2-(3-(5-fluoropyridin-3-yl)phenyl)-5-methylpyrazolo[1,5-a]pyrimidin-6-yl)acetic acid], for which the EC50 was less than 100 nM.

`Cc1nc2cc(-c3cccc(-c4cnc5ccccc5c4)c3)nn2c(-c2cc(F)c3c(c2C)CCCO3)c1[C@H](OC(C)(C)C)C(=O)O` [Example 172, (2S)-2-(tert-Butoxy)-2-(7-(8-fluoro-5-methylchroman-6-yl)-5-methyl-2-(3-(quinolin-3-yl)phenyl)pyrazolo[1,5-a]pyrimidin-6-yl)acetic acid]: the EC50 was less than 100 nM.

For the compound `Cc1nc2cc(-c3cccc(-c4ccccc4C(F)(F)F)c3)nn2c(-c2cc(F)c3c(c2C)CCCO3)c1[C@H](OC(C)(C)C)C(=O)O` [Example 173, (2S)-2-(tert-Butoxy)-2-(7-(8-fluoro-5-methylchroman-6-yl)-5-methyl-2-(2′-(trifluoromethyl)-[1,1′-biphenyl]-3-yl)pyrazolo[1,5-a]pyrimidin-6-yl)acetic acid], the EC50 was less than 100 nM.

Turning to `Cc1nc2cc(-c3cccc(-c4cnn(-c5ccccc5)c4C)c3)nn2c(-c2cc(F)c3c(c2C)CCCO3)c1[C@H](OC(C)(C)C)C(=O)O` [Example 174, (2S)-2-(tert-Butoxy)-2-(7-(8-fluoro-5-methylchroman-6-yl)-5-methyl-2-(3-(5-methyl-1-phenyl-1H-pyrazol-4-yl)phenyl)pyrazolo[1,5-a]pyrimidin-6-yl)acetic acid], the EC50 was less than 100 nM.

On to `Cc1nc2cc(-c3cccc(-c4ccnc(N5CCN(C)CC5)c4)c3)nn2c(-c2cc(F)c3c(c2C)CCCO3)c1[C@H](OC(C)(C)C)C(=O)O` [Example 175, (2S)-2-(tert-Butoxy)-2-(7-(8-fluoro-5-methylchroman-6-yl)-5-methyl-2-(3-(2-(4-methylpiperazin-1-yl)pyridin-4-yl)phenyl)pyrazolo[1,5-a]pyrimidin-6-yl)acetic acid], for which the EC50 is less than 100 nM.
